Legend:
[1] = target: Phosphatidylinositol 4,5-bisphosphate 3-kinase catalytic subunit alpha isoform (Homo sapiens, UniProt P42336); assay: Inhibition of PI3Kalpha (unknown origin)
[2] = target: Hepatocyte growth factor receptor (Homo sapiens, UniProt P08581); assay: Inhibition of HGF receptor (unknown origin)
[3] = target: Macrophage colony-stimulating factor 1 receptor (Homo sapiens, UniProt P07333); assay: Inhibition of CSF1R (unknown origin)
Sequence of Macrophage colony-stimulating factor 1 receptor (P07333 whole entry): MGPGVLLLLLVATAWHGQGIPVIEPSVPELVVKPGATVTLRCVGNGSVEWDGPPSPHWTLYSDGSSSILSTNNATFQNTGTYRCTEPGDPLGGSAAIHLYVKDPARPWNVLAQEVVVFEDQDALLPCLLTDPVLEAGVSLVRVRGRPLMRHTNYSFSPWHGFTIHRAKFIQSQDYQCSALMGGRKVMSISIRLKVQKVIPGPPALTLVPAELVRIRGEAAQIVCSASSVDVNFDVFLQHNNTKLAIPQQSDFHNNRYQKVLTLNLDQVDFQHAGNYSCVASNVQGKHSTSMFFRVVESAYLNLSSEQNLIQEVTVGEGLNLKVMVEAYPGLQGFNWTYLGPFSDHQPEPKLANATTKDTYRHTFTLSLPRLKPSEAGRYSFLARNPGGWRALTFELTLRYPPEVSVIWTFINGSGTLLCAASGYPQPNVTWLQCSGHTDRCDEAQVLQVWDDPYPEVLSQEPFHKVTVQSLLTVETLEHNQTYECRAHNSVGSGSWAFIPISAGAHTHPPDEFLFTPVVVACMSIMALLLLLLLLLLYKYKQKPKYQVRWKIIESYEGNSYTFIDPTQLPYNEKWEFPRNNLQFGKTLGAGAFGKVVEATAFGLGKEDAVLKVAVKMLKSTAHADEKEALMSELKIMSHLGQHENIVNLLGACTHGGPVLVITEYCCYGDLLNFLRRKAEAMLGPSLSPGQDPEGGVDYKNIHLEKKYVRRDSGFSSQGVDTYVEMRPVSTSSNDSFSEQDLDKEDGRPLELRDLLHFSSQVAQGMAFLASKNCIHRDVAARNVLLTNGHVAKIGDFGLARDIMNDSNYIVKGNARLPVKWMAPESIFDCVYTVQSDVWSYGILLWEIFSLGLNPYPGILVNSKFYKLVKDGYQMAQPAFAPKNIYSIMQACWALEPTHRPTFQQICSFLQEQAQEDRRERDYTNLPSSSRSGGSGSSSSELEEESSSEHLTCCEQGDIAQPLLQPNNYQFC

Sequence of Phosphatidylinositol 4,5-bisphosphate 3-kinase catalytic subunit alpha isoform (P42336 whole entry, canonical isoform): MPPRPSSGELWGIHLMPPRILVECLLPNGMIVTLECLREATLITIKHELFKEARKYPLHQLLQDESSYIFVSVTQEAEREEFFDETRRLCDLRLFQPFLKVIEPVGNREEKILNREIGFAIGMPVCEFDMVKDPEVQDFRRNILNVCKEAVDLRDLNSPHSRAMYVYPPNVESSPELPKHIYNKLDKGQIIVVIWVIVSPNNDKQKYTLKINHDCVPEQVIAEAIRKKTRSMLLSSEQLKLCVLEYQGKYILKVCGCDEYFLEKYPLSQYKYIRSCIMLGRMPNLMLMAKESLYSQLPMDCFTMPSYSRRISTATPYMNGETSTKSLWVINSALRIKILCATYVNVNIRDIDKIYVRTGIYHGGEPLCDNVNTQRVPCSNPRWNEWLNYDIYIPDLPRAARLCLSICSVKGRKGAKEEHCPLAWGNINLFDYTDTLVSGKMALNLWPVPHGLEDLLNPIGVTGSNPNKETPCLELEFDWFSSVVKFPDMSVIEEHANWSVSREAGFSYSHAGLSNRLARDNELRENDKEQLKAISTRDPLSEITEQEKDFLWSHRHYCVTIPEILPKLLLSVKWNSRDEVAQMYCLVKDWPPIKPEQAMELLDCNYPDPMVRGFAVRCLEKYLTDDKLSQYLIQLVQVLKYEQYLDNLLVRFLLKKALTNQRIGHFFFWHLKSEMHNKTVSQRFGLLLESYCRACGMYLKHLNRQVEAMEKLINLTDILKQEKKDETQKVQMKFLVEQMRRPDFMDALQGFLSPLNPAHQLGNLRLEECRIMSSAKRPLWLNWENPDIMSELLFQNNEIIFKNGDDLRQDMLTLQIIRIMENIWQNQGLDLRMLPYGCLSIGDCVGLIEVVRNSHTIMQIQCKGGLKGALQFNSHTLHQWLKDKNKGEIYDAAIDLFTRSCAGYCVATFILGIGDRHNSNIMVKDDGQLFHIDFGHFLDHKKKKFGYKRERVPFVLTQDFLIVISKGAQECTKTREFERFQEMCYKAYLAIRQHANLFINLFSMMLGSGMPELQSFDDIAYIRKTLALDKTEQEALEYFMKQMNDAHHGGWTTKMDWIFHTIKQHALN
Sequence of Hepatocyte growth factor receptor (P08581 whole entry): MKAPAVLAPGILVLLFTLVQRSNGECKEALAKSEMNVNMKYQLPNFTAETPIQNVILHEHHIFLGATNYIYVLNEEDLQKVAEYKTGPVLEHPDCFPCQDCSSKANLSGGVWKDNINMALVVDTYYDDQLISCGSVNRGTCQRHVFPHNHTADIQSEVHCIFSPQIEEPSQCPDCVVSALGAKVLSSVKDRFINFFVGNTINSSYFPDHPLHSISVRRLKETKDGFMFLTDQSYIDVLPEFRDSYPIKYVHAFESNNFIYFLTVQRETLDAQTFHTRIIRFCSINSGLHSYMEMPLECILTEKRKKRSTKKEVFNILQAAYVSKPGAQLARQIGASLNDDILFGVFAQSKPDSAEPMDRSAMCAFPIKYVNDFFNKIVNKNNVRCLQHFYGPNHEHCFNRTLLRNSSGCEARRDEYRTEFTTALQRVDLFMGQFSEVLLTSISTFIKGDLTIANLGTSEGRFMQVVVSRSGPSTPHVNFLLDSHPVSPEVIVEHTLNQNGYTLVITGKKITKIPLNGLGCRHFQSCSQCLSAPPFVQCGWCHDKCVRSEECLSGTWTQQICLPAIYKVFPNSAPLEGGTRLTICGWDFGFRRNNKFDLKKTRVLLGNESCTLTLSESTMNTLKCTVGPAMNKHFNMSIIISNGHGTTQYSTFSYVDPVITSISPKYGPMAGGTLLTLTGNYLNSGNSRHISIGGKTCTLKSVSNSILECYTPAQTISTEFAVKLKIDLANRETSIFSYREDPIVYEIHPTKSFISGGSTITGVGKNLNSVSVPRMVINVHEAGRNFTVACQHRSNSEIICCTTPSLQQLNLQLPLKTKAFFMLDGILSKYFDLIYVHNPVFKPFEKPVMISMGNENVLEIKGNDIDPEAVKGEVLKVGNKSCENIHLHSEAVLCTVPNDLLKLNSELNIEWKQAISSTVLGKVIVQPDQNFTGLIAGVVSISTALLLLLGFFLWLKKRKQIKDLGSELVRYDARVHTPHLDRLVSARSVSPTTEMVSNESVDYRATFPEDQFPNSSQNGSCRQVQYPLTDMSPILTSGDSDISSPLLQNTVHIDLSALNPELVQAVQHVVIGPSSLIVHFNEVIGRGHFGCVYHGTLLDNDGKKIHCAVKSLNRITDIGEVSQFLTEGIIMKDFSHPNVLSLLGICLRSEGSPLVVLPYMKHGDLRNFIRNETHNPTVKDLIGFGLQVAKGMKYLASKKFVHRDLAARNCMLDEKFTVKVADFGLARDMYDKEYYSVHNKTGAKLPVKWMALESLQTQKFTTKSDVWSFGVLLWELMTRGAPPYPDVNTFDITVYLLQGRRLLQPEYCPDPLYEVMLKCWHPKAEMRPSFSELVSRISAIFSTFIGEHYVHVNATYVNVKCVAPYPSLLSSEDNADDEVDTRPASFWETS

**Q.** How did the IC50 [1] turn out when c1n[nH]c(-c2nc3c(s2)CCOc2cc(C4CNC4)ccc2-3)n1 was run?
**A.** The IC50 was 1.91 nM.

**Q.** How did the IC50 [2] turn out when C1=CN(c2ccccc2)CC(CNc2ccc(Oc3ccncc3)cc2)=C1 was run?
**A.** Its IC50 is 8.91 nM.

**Q.** With C1=C(c2cc(C3CNCNC3)ccc2NCc2ncc[nH]2)CCCC1 as the molecule, how does the IC50 [3] read?
**A.** The IC50 was 2.51 nM.

**Q.** With c1n[nH]c(-c2nc3c(s2)CCOc2cc(-c4cn[nH]c4)ccc2-3)n1 as the molecule, how does the IC50 [1] read?
**A.** Its IC50 is 0.269 nM.

From ChEMBL document CHEMBL5614370, “Data-oriented protein kinase drug discovery” (Eur J Med Chem, 2024)
